Data on 31 compounds can be found in ChEMBL document CHEMBL5370642, “Synthesis and Bioevaluation of 3-(Arylmethylene)indole Derivatives: Discovery of a Novel ALK Modulator with Antiglioblastoma Activities” (J Med Chem, 2023).

As usually defined, the IC50 is the midpoint of a concentration-inhibition curve.

Activity calls are given as the source filed them. No cut-off for these calls is given here. Some results are limits rather than exact numbers.

Test [1] relates to U-87 MG. The test is described as follows: Anti-proliferative activity against human U-87 MG cells assessed as cell viability incubated for 2 hrs by CCK8 assay. Format: functional, cell-based, U-87MG ATCC. (In general: Tetrazolium assays rely on reduction of a dye to a coloured formazan, in cell work by metabolically active cells.)
For test [2], the system named is GL261. The test is described as follows: Anti-proliferative activity against mouse GL261 cells assessed as cell viability incubated for 2 hrs by CCK8 assay. Format: functional, cell-based. The note with it: GL261, 2 h.
Test [3] concerns GL261. Description: Anti-proliferative activity against […] GL261 cells assessed as inhibition rate incubated for 48 hrs by CCK8 assay. The format is functional, cell-based.
The subject of test [4] is U-87 MG. The test is described as follows: Anti-proliferative activity against human U-87 MG cells assessed as inhibition rate incubated for 48 hrs by CCK8 assay. The format is functional, cell-based. The following applies: U-87MG ATCC.

As for `Cc1cc(Cc2cn(S(=O)(=O)c3ccc([N+](=O)[O-])cc3)c3ccccc23)cc(C)c1O`, the figures for the IC50 in test [1] and in test [2] were greater than 100 µM and 100 µM, respectively.

For the compound `Cc1ccc(S(=O)(=O)n2cc(Cc3cc(C(C)(C)C)c(O)c(C(C)(C)C)c3)c3ccccc32)cc1`, the IC50 in test [1] was greater than 100 µM; in test [2] it was 100 µM.

Regarding `Cc1cc(Cc2cn(Cc3ccc(Cl)cc3)c3ccccc23)cc(C)c1O`, the IC50 was found to be 87.8 µM in test [1] and 54.9 µM in test [2].

Consider `Cc1cc(Cc2cn(C(=O)c3ccc(N4CCN(C)CC4)cc3)c3ccccc23)cc(C)c1O`, for which the IC50 came out at 5.59 µM in test [1] and 3.49 µM in test [2].

Regarding `OCc1c[nH]c2ccccc12` [INDOLE-3-CARBINOL], the values for the IC50 in test [1] and in test [2] were greater than 100 µM and 100 µM, respectively.

Consider `Cc1cc(Cc2cn(S(C)(=O)=O)c3ccccc23)cc(C)c1O`, for which the IC50 in test [1] is greater than 100 µM; in test [2], 100 µM.

In the case of `Cc1cc(Cc2cn(C)c3ccccc23)cc(C)c1O`, the IC50 in test [1] came out at 7.96 µM; in test [2] it was 12.7 µM.

For `Cc1ccc(S(=O)(=O)n2cc(Cc3cc(C)c(O)c(C)c3)c3cc(C#N)ccc32)cc1`, the IC50 was found to be 30.2 µM in test [1] and 9.6 µM in test [2].

For `Cc1ccc(S(=O)(=O)n2cc(Cc3cc(C)c(O)c(C)c3)c3cc(NC(=O)CCCC[C@@H]4SC[C@@H]5NC(=O)N[C@@H]54)ccc32)cc1`, the inhibition entry in test [3] and in test [4] was “Active” in each case.

`Cc1cc(Cc2cn(C(=O)c3ccncn3)c3ccccc23)cc(C)c1O`: the IC50 in test [1] is greater than 100 µM; in test [2] it was 13.3 µM.

Regarding `Cc1cc(Cc2c[nH]c3ccc([N+](=O)[O-])cc23)cc(C)c1O`, the IC50 in test [1] turned out to be 74.6 µM; in test [2] it was 43.8 µM.

Regarding `Cc1cc(Cc2c[nH]c3ccc(F)cc23)cc(C)c1O`, the IC50 came to 55.1 µM in test [1] and 19.2 µM in test [2].

Consider `Cc1cc(Cc2cn(C(=O)c3ccc([N+](=O)[O-])cc3)c3ccccc23)cc(C)c1O`, for which the IC50 is greater than 100 µM in test [1] and 100 µM in test [2].

Turning to `COc1ccc2c(c1)c(Cc1cc(C)c(O)c(C)c1)cn2S(=O)(=O)c1ccc(C)cc1`, the IC50 in test [1] was 28.1 µM; in test [2], 56.1 µM.

Take `Cc1ccc(S(=O)(=O)n2cc(Cc3cc(C)c(O)c(C)c3)c3cc(C)ccc32)cc1`: the figures for the IC50 in test [1] and in test [2] were 20.7 µM and 12.3 µM, respectively.

Regarding `Cc1cc(Cc2cn(C(=O)c3ccc(N4CCOCC4)cc3)c3ccccc23)cc(C)c1O`, the IC50 in test [1] is 12.6 µM; in test [2], 12.7 µM.

As to `Cc1cc(Cc2cn(C(=O)c3ccnc4ccccc34)c3ccccc23)cc(C)c1O`, the IC50 is greater than 100 µM in test [1] and 11.4 µM in test [2].

Take `COc1ccc2c(Cc3cc(C)c(O)c(C)c3)cn(S(=O)(=O)c3ccc(C)cc3)c2c1`: the IC50 amounted to 10.4 µM in test [1] and 38.5 µM in test [2].

Regarding `Cc1cc(Cc2cn(S(=O)(=O)c3ccc(Br)cc3)c3ccccc23)cc(C)c1O`, the results for the IC50 in test [1] and in test [2] were greater than 100 µM and 100 µM, respectively.

Consider `CCC(=O)n1cc(Cc2cc(C)c(O)c(C)c2)c2ccccc21`, for which the IC50 was 100 µM in test [1] and 2850 µM in test [2].

For the compound `CC(=O)n1cc(Cc2cc(C)c(O)c(C)c2)c2ccccc21`, the IC50 was found to be 58.3 µM in test [1] and 25.4 µM in test [2].

Consider `CCn1cc(Cc2cc(C)c(O)c(C)c2)c2ccccc21`, for which the results for the IC50 in test [1] and in test [2] were greater than 100 µM and 100 µM, respectively.

With `Cc1ccc(S(=O)(=O)n2cc(Cc3cc(C)c(O)c(C)c3)c3cc([N+](=O)[O-])ccc32)cc1`, the IC50 came to 23.2 µM in test [1] and 19.7 µM in test [2].

On to `Cc1cc(Cc2cn(C(=O)c3ccc(Cl)cc3)c3ccccc23)cc(C)c1O`, for which the IC50 in test [1] was found to be 41.3 µM; in test [2] it was 100 µM.

With `Cc1cc(Cc2c[nH]c3ccccc23)cc(C)c1O`, the values for the IC50 in test [1] and in test [2] were greater than 100 µM and 12.8 µM, respectively.

On to `COc1c(C)cc(Cc2cn(S(=O)(=O)c3ccc(C)cc3)c3ccccc23)cc1C`, for which the results for the IC50 in test [1] and in test [2] were greater than 100 µM and 100 µM, respectively.

Turning to `C[C@@H](Oc1cc(-c2cnn(C3CCNCC3)c2)cnc1N)c1c(Cl)ccc(F)c1Cl` [CRIZOTINIB], the IC50 in test [1] is 7.29 µM; in test [2], 3.43 µM.

On to `Cc1ccc(S(=O)(=O)n2cc(Cc3cc(C)c(O)c(C)c3)c3cc(F)ccc32)cc1`, for which the results for the IC50 in test [1] and in test [2] were 42.6 µM and 100 µM, respectively.

Consider `Cc1cc(Cc2cn(S(=O)(=O)c3ccc([N+](=O)[O-])c(Cl)c3)c3ccccc23)cc(C)c1O`, for which the IC50 came out at 3.52 µM in test [1] and 15.7 µM in test [2].

Consider `CC(C)c1cccc(C(C)C)c1O` [PROPOFOL], for which the IC50 in test [1] is greater than 100 µM; in test [2], 100 µM.

For `Cc1ccc(S(=O)(=O)n2cc(Cc3cc(C(C)C)c(O)c(C(C)C)c3)c3ccccc32)cc1`, the IC50 in test [1] came out at 75.4 µM; in test [2], 90.3 µM.
